The results in this text go back to article PMC11945486, “TAS1R2/TAS1R3 Single-Nucleotide Polymorphisms Affect Sweet Taste Receptor Activation by Sweeteners: The SWEET Project” (Nutrients, 2025).

Where two headings read alike, the source gives them in different places. No end group written: not given here.

This experiment addresses T1, human TAS1R2-WT/TAS1R3-C757R (Homo sapiens, UniProt Q7RTX0+Q8TE23, C757R).
T1 construct: expressed in transfected cells; host or cells: HEK293T stably expressing Gα16gust44
T1 sequence (Q8TE23 20-839): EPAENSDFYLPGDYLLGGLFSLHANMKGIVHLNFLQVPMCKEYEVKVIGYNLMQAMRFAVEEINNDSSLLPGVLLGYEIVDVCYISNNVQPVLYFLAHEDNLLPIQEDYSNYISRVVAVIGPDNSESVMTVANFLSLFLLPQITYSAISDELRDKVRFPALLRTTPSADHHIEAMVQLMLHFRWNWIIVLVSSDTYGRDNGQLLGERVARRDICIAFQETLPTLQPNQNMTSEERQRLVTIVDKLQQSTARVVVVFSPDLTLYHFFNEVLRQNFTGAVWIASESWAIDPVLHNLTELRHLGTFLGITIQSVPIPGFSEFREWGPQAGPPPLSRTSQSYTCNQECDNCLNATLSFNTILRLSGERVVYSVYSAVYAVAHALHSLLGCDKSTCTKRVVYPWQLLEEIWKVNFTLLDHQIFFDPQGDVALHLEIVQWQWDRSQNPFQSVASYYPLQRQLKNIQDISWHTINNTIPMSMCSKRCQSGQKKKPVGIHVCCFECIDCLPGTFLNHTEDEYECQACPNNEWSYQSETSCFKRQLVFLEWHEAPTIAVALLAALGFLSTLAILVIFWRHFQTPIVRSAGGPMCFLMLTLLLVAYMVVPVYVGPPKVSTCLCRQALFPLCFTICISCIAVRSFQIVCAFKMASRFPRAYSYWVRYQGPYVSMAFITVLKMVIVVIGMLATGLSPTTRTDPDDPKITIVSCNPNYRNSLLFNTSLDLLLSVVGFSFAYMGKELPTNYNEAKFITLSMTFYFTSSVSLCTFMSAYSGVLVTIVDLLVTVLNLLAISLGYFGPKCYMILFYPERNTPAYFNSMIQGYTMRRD
T1 sequence (Q7RTX0 21-852 C757R): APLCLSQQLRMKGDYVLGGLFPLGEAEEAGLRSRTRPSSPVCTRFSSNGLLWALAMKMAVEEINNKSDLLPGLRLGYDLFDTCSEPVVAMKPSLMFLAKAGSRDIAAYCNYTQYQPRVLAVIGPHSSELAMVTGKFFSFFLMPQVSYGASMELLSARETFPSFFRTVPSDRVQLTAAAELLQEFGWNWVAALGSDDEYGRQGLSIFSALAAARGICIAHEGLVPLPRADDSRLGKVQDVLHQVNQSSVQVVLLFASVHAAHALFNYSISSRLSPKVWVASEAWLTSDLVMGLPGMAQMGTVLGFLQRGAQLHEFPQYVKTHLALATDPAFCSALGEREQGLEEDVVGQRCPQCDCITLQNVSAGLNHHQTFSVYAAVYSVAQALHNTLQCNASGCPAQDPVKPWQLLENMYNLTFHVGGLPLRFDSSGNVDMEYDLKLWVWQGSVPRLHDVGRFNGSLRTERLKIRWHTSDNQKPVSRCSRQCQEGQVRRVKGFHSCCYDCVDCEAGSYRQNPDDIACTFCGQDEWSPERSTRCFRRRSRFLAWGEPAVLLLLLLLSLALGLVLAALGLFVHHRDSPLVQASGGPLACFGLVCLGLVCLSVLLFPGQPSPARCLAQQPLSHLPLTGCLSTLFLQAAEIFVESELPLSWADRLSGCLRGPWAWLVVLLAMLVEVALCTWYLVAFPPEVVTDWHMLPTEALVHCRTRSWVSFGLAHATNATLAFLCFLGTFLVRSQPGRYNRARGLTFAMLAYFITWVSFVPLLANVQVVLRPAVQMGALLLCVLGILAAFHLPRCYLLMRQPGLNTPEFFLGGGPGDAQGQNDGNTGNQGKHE
In words: Calcium mobilisation assay, TAS1R2-WT with TAS1R3 variant C757R. The conditions noted are these: for Max ΔF/F0: maximal signal amplitude. The class given is cell-based. The source says: The coding sequences for TAS1R2 and TAS1R3 were commercially synthesised, and the human codon was optimised for expression in human cells. The coding sequences of human TAS1R2 and TAS1R3 were subcloned and inserted into the mammalian expression vectors pcDNA6/myc-HisA and pcDNA4/myc-HisA (Invitrogen; Thermo Fisher Scientific; Illkirch, France) between the EcoRI and NotI restriction sites, generating the plasmids pcDNA6-TAS1R2 and pcDNA4-TAS1R3, respectively. To increase protein expression in mammalian cells, an upstream start codon was used, which was a sequence called MAX, corresponding to the QBI SP163 element also described in pcDNA4-HisMax (Invitrogen; Thermo Fisher Scientific; Illkirch, France). To measure the expression level of the receptor by immunohistochemistry, we used the FLAG sequence ([…]) in the C-terminal position, which encodes the FLAG tag epitope. SNP variants of TAS1R2 and TAS1R3 were constructed based on […], respectively, using site-directed mutagenesis (Genewiz; Leipzig, Germany).
The HEK293T cells were kindly provided by Jay P. Slack (Givaudan Flavors Corporation; Cincinnati, OH, USA). HEK293T cells stably transfected with Gα16gust44 [43, 67] were seeded in poly-D-lysine-coated clear-bottom black 96-well plates (0.35 × 10^5 cells/well) in high-glucose DMEM supplemented with 2 mM GlutaMAX, 10% dialysed foetal bovine serum with penicillin/streptomycin and G418 (400 μg/mL) at 37 °C and 6.3% CO2 in a humidified atmosphere as previously reported. […] As a negative control, HEK293T cells were mock-transfected with the empty expression vector. After a further 24 h of incubation, the HEK293T cells were washed with C1 buffer (130 mM NaCl, 5 mM KCl, 10 mM HEPES pH 7.4 and 2 mM CaCl2). The 96-well plates containing the cells were then stimulated with sweet-tasting compounds. […] Different concentration ranges were tested depending on the sweet compound injected. The Ca^2+ changes were expressed as fractional changes in fluorescent light intensity: ΔF/F = (F − F0)/F0, where F was the fluorescent light intensity at each point, and F0 was the value of emitted fluorescent light prior to stimulus application. To calculate dose–response relationships, the changes in fluorescence upon stimulus application were averaged, mock-subtracted and baseline-corrected. The dose–response data obtained were adjusted using a 4-parameter logistic equation. The half-maximal effective concentrations (EC50 values) and maximal signal amplitudes were calculated using SigmaPlot software (version 15.0) (Systat Software; San Jose, CA, USA).
For in vitro calcium mobilisation assay performed on hTAS1R2-SNPs, hTAS1R3-SNPs and mTAS1R3-I60T, 6 to 7 concentrations were tested for each sweet compound, plus buffer alone. All concentration–receptor combinations were measured in duplicate, and each experiment was repeated at least 4 times (8 wells/concentration). Results were expressed for each concentration as ΔF/F mean ± SEM and represented as dose–response curves.

Consider `CC1=CC(=O)NS(=O)(=O)O1` [Acesulfame K, acesulfame K], for which the “R1 = Variant EC50/WT EC50” value amounted to 0.8 and the “Max ΔF/F0” value was found to be 0.42 ± 0.01. In addition, where the note is “read-out: EC50”, the concentration giving a half-maximal response (EC50) came to 468 ± 31 µM.

Turning to `O=S(=O)(O)NC1CCCCC1` [Cyclamate, cyclamate], for the setting “read-out: EC50”, the concentration for a half-maximal effect (EC50) was determined as 1150 ± 54 µM.

In the case of `C[C@H](CC[C@@H](O[C@@H]1O[C@H](CO[C@@H]2O[C@H](CO)[C@@H](O)[C@H](O)[C@H]2O)[C@@H](O)[C@H](O)[C@H]1O[C@@H]1O[C@H](CO)[C@@H](O)[C@H](O)[C@H]1O)C(C)(C)O)[C@H]1CC[C@@]2(C)[C@@H]3CC=C4[C@@H](CC[C@H](O[C@@H]5O[C@H](CO[C@@H]6O[C@H](CO)[C@@H](O)[C@H](O)[C@H]6O)[C@@H](O)[C@H](O)[C@H]5O)C4(C)C)[C@]3(C)[C@H](O)C[C@]12C` [Mogroside V, mogroside V], the “R1 = Variant EC50/WT EC50” value is recorded as 0.7 and the “Max ΔF/F0” value is 1.03 ± 0.02. For the same molecule, where the note is “read-out: EC50”, the EC50 is 21.7 ± 1 µM.

Consider `COc1ccc(CCC(=O)c2c(O)cc(O[C@@H]3O[C@H](CO)[C@@H](O)[C@H](O)[C@H]3O[C@@H]3O[C@@H](C)[C@H](O)[C@@H](O)[C@H]3O)cc2O)cc1O` [NHDC, neohesperidin dihydrochalcone], for which the “R1 = Variant EC50/WT EC50” value came to 0.7 and the “Max ΔF/F0” value is recorded as 0.98 ± 0.01. The EC50 (read-out: EC50) came to 36.5 ± 16 µM.

Regarding `COC(=O)[C@H](Cc1ccccc1)NC(=O)[C@H](CC(=O)O)NCCC(C)(C)C` [Neotame], the “R1 = Variant EC50/WT EC50” value is on record as 0.7 and the “Max ΔF/F0” value was found to be 0.75 ± 0.03. The concentration giving a half-maximal response (EC50) (read-out: EC50) was found to be 0.88 ± 0.12 µM.

`C=C(C)[C@@H]1CC=C(/C=N/O)CC1` [Perillartine, perillartine]: the “R1 = Variant EC50/WT EC50” value stood at 0.6 and the “Max ΔF/F0” value amounted to 1.23 ± 0.13. Moreover, the EC50 (read-out: EC50) amounted to 8.1 ± 2.6 µM.

Turning to `C=C1C[C@@]23CC[C@H]4[C@@](C)(CCC[C@@]4(C)C(=O)O[C@@H]4O[C@H](CO)[C@@H](O)[C@H](O[C@@H]5O[C@H](CO)[C@@H](O)[C@H](O)[C@H]5O)[C@H]4O[C@@H]4O[C@H](CO)[C@@H](O)[C@H](O)[C@H]4O)[C@@H]2CC[C@]1(O[C@@H]1O[C@H](CO)[C@@H](O)[C@H](O[C@@H]2O[C@H](CO)[C@@H](O)[C@H](O)[C@H]2O)[C@H]1O[C@@H]1O[C@H](CO)[C@@H](O)[C@H](O)[C@H]1O)C3` [Rebaudioside M, rebaudioside M], the “R1 = Variant EC50/WT EC50” value worked out at 0.6 and the “Max ΔF/F0” value was 1.13 ± 0.04. Besides, the EC50 (read-out: EC50) was 24.3 ± 2.2 µM.

In the case of `OC[C@H]1O[C@H](O[C@]2(CCl)O[C@H](CCl)[C@@H](O)[C@@H]2O)[C@H](O)[C@@H](O)[C@H]1Cl` [Sucralose], the “R1 = Variant EC50/WT EC50” value came to 1.0 and the “Max ΔF/F0” value is 0.84 ± 0.03. For the same molecule, the EC50 (read-out: EC50) worked out at 113 ± 10 µM.

Consider “brazzein (QDKCKKVYENYPVSKCQLANQCNYDCKLDKHARSGECFYDEKRNLQCICDYCEY; ends and bridges not checked; cysteine pairing not given here; UniProt P56552 1-54, looked up) [sweet-tasting protein obtained by recombinant production using the yeast Pichia pastoris]”, for which the “R1 = Variant EC50/WT EC50” value was 0.7 and the “Max ΔF/F0” value worked out at 0.86 ± 0.06. Besides, the EC50 (brazzein) stood at 74.2 ± 1.9 µg/mL.

With thaumatin, the “R1 = Variant EC50/WT EC50” value came out at 0.6 and the “Max ΔF/F0” value is 0.69 ± 0.05.

B1: thaumatin (protein)
chain: ATFEIVNRCSYTVWAAASKGDAALDAGGRQLNSGESWTINVEPGTKGGKIWARTDCYFDDSGSGICKTGDCGGLLRCKRFGRPPTTLAEFSLNQYGKDYIDISNIKGFNVPMDFSPTTRGCRGVRCAADIVGQCPAKLKAPGGGCNDACTVFQTSEYCCTTGKCGPTEYSRFFKRLCPDAFSYVLDKPTTVTCPGSSNYRVTFCPTA
modifications: Eight disulfides
notes: sweet-tasting plant protein, E957
For the molecule B1, the concentration for a half-maximal effect (EC50) (read-out: EC50) came to 6.7 ± 1.4 µM.
